Measured values taken from patent US10465854B2, “Temperature-stable paraffin inhibitor compositions” (Ecolab USA Inc., priority 2016, dated 2019).
Where two headings read alike, the source gives them in different places.

What was measured:
[1] = LogP value in octanol/water; conditions: for logP: octanol/water
[2] = Pour point observation according to ASTM D-97; assay type: physicochemical
Source text: A number of working examples were composed and tested for flow indicative of solidification point depression (e.g., pour point temperatures). The compositions tested herein are said to “pour or flow” at the indicated temperature when the PIC of each working example, vertically at rest on a substantially horizontal surface the cylindrical container (radius 1 inch, height 2 inches), flows observably within about 10 seconds when tipped to a substantially horizontal position. This amount of flow is known to be sufficient to indicate that the composition is pourable or pumpable for use in the field, where such concentrates are applied to one or more crude oil transportation or storage systems. The flowing samples are said to have a pour point at temperatures where the flow is observed. The pour point is above the solidification temperature for a given sample. The effect on pour point was observed according to ASTM D-97 test method (including storage for a half hour in a freezer set the associated temperature prior to observation for pour or flow).
The effect on pour point was observed according to ASTM D-97 test method (storage for at least one half hour in a freezer set at a specific temperature (e.g., −60° C.)). The specific low Log P molecules, amounts thereof, amounts of PI polymer, with the balance comprising a refined petroleum distillate or solvent such as HAN; and pour point observations according to ASTM D-97 are listed in Table 2 below.
A comparison of pour points was made between control samples having no low Log P molecules and samples including low Log P molecules to determine the total amount of pour point depression.
The relative amounts of pour point depression of PICs having combination nonyl phenol formaldehyde resin and alpha olefin/maleic anhydride (OMAC) copolymer PIs (specifically OMAC amide polymers), were tested by the ASTM D-97 method. A comparison of pour points was made between control samples having no low Log P molecules and samples including low Log P molecules to determine the total amount of pour point depression.
A low Log P ether molecules was tested for pour point depression in various PICs. The 2-methoxy ethanol was tested in various amounts in PICs and in PICs having various amounts of PI polymer (alkyl phenol formaldehyde resin) therein.

[3] = compounds of table 1 tested for pour point and freezing point

Molecule: CN1CCCC1=O
- logP [1]: 0.07

Molecule: CCCCOCCO
- logP ([1]; LogP, Table 1): 1.01

Molecule: C1COCCO1 [drawing 23]
- logP [1]: -0.23

Molecule: CC1COC(=O)O1 (stereo not shown)
- logP [1]: 0.37

Molecule: CN1CCCCC1=O
- logP [1]: 0.57

Molecule: CCCCC(CC)CO (stereo not shown) [2-Ethyl Hexanol, 2-ethyl hexanol]
- logP [1]: 2.87
- logP ([1]; Table 1): 2.87

Molecule: O=C1CCCCN1
- logP [1]: 0.33

Molecule: 2-methoxy ethanol
- suitability as pour point depressant in PIC compositions [2, 3]: showed promise as pour point depressants
- lowered the pour point by ([2]; versus the PIC of working example 28): about 90 °C
- logP ([1]; Table 1): −0.43
- Log P ([1]; text b150): −0.43

Molecule: CN(C)CCO [drawing 17]
- logP ([1]; LogP, Table 1): -0.29

Molecule: O=C1OCCO1
- logP [1]: 0.01

Molecule: CC(C)CO [Isobutanol]
- logP [1]: 0.8

Molecule: CN(C)CCO [dimethylethanolamine]
- suitability as pour point depressant in PIC compositions [2, 3]: showed promise as pour point depressants

Molecule: O=C1CCCO1 [Butryolactone, butyrolactone]
- suitability as pour point depressant in PIC compositions [2]: showed promise as pour point depressants
- logP ([1]; LogP, Table 7, of the low LogP molecule type): -0.59

Molecule: O=C1CCCN1 [2-Pyrollidone, 2-pyrrolidone]
- suitability as pour point depressant in PIC compositions [2, 3]: showed promise as pour point depressants
- logP [1]: -0.18
- logP ([1]; Table 1): −0.18

Molecule: CNC(=O)NC
- logP [1]: -0.25

Molecule: O=C1COCCN1 [3-Ketomorpholine, 3-ketomorpholine]
- logP [1]: -0.49
- logP ([1]; Table 1): −0.49

Molecule: O=C1CCCO1 [drawing 12]
- logP ([1]; Table 1): −0.57

Molecule: C1COCCO1 [1,4-dioxane]
- suitability as pour point depressant in PIC compositions [2]: showed promise as pour point depressants

Molecule: CC(O)CO (stereo not shown) [1,2-propanediol]
- suitability as pour point depressant in PIC compositions [2, 3]: showed promise as pour point depressants

Molecule: COCC(C)OC(C)=O (stereo not shown)
- logP [1]: 0.73

Molecule: CO [Methanol]
- pour point depressed by [2]: 70 °C
- suitability as pour point depressant in PIC compositions [2]: showed promise as pour point depressants
- logP [1]: -0.32
- logP ([1]; Table 1): −0.32

Molecule: CC(C)O [Isopropanol]
- suitability as pour point depressant in PIC compositions [2, 3]: showed promise as pour point depressants

Molecule: CCOCCO
- logP [1]: -0.05
